Test results as given in paper PMC11396062, “The n-Butanol Extract Obtained from the Inner Bark of Tabebuia rosea (Bertol.) DC, Specioside, and Catalposide Induce Leukemia Cell Apoptosis in the Presence of Apicidin” (Molecules, 2024).
Values after ≈ are worked out from the molar mass of the structure shown.

Assays:
BCL2 = test: RT-qPCR BCL2 mRNA expression; assay type: cell-based, human; settings: THP-1, catalposide 44 μg/mL, specioside 40 μg/mL
Experimental: (§1) After treatment, mRNA extraction was performed using the RNeasy Plus Mini Kit (Qiagen, Germantown, MD, USA; Cat No. 74134). The mRNA was quantified with a NanoDrop 2000c (Thermo Fisher Scientific, Waltham, MA, USA). The expression of the MAPK14 (gene encoding p38), BCL2, and BAX genes was evaluated by qRT–PCR and quantified with the 2^−ΔΔCt method in the Applied Biosystems StepOnePlus Real-Time PCR System (Applied Biosystems, Foster City, CA, USA), which uses predesigned TaqMan Gene Expression Assays (codes […], Hs00608023_m1, and Hs00180269_m1, respectively) (Applied Biosystems, Foster City, CA, USA) and the TaqMan® RNA-to-CT TM 1-Step Kit (Applied Biosystems, Foster City, CA, USA, Cat No. 4392653). The reaction mixture was incubated at 48 °C for 15 min and 95 °C for 10 min and then cycled (40 cycles) at 95 °C for 15 s and 60 °C for 1 min. GAPDH was used as an endogenous control.

THP-1 cells = test: Cell cycle analysis by flow cytometry; assay type: cell-based, human; settings: THP-1 (Figure S6)
Experimental: After treatment with the extract, 7 × 10^4 cells were harvested, washed with PBS, fixed with 200 µL of ice-cold 70% ethanol, and maintained at 4 °C for 4 h before staining. The cell pellet was washed in 1X PBS, resuspended in 200 µL of Guava Cell Cycle reagent (#4500-0220, Millipore), and incubated in the dark at 37 °C for 30 min before analysis with a Guava flow cytometer (Merck Millipore, Bedford, MA, USA) using InCyte software (version 3.1, Merck Millipore).. Centrifugation was performed at 1200 rpm for 5 min at room temperature for each step.

BAX = test: RT-qPCR BAX mRNA expression; assay type: cell-based, human; settings: THP-1, catalposide 44 and 66 μg/mL, specioside 20, 40 and 60 μg/mL
Experimental: as §1

[1] = tested on: Peripheral blood mononuclear cells (PBMCs); test: MTT cell viability assay, PBMC (normal cells); assay type: cell-based; settings: Homo sapiens, n = 3
Experimental: Jurkat and THP-1 cell lines were purchased from the American Type Culture Collection (ATCC, Rockville, MD, USA); Jurkat is a human lymphocytic cell line representing acute T-cell leukemia, and THP-1 is a monocytic cell line that represents acute myelogenous leukemia (AML). Jurkat and THP-1 cells were maintained in RPMI 1640 medium (Sigma) supplemented with 10% heat-inactivated fetal bovine serum (FBS) (Gibco Cat No. 16140071, Waltham, MA USA), 200 μg/mL penicillin, 200 μg/mL streptomycin, 400 μg/mL neomycin (GIBCO, Cat No. 15640-055), 5 μg/mL amphotericin, and 1 mM sodium pyruvate (all from Sigma Chemical Co., Saint Louis, MO, USA; Cat Nos. A9528-50 MG, M7522-100ML, and S8636-100ML, respectively). The cells were maintained at 37 °C in a humidified atmosphere with 5% CO2. The culture medium was exchanged with fresh medium every 2–3 days. Peripheral blood mononuclear cells (PBMCs) were isolated from normal human venous blood. Further, 10 milliliters of human blood was mixed with 10 mL of RPMI-1640 containing 50 µL of heparin and gradually poured over 1 mL of HISTOPAQUE®-1119 (Sigma). The plasma was removed by centrifugation at 3000 rpm for 30 min. The peripheral blood mononuclear cell-containing layer was collected with a pipette and diluted in 4 mL of PBS. PBMCs were harvested by centrifugation at 1500 rpm for 10 min at room temperature, resuspended in RPMI-1640 with 10% FBS, and incubated at 37 °C in 5% CO2 humidified air.
Cell viability was determined by measuring the mitochondrial activity of live cells via the metabolism of the tetrazolium substrate 3-(4,5-dimethylthiazol-2-yl)-2,5-diphenyl tetrazolium bromide (MTT) and converting it to purple formazan crystals. Briefly, the cells (2 × 10^4 cells/well) were treated with 25, 50, 100, 200, or 400 μg/mL extract diluted in DMSO (at a final concentration of 0.5%) and incubated for 12, 24, or 48 h. Catalposide and specioside were tested at concentrations of 20, 50, and 100 μg/mL for 12, 24, and 48 h. For apicidin, 0.5, 1, and 2 μM apicidin were tested for 24 and 48 h. Doxorubicin was used as a reference standard drug (positive control). After treatment, the medium was discarded; 200 μL of RPMI 1640 medium without phenol red containing 0.5 mg/mL MTT (Sigma Chemical Co., Saint Louis, MO, USA; Cat. No. M2128-500MG) was then added to each well. The plates were incubated for four hours at 37 °C with 5% CO2 in a humidified atmosphere. The medium was discarded, and 100 μL of DMSO was added to solubilize the formazan crystals. The absorbance was measured with an ELISA microplate reader at 492 nm (ELx800; BioTek Instruments Inc., Winooski, VT, USA). The percentage of viable cells was calculated on the basis of the nontreated control (taken as 100%). The IC50 (concentration causing a 50% reduction in cellular viability) values for all the tested compounds were evaluated in Excel using the nonlinear regression curve method. Three independent assays were performed, each in triplicate.

| Compound | expression of Bcl-2 mRNA with APC (BCL2) | percentage of cells in the G0/G1 phase compared with control (THP-1 cells) | expression of Bax mRNA with APC pretreatment (BAX) | IC50 ([1]; 12 h) [µg/mL] | IC50 ([1]; 24 h) [µg/mL] | IC50 ([1]; 48 h) [µg/mL] |
| --- | --- | --- | --- | --- | --- | --- |
| O=C(O[C@H]1[C@@H]2C=CO[C@@H](O[C@@H]3O[C@H](CO)[C@@H](O)[C@H](O)[C@H]3O)[C@@H]2[C@@]2(CO)O[C@@H]12)c1ccc(O)cc1 [Catalposide, catalposide] | decreased | the increase was significant | increased | 126 ± 2.8 (≈ 260 µM) | 87.7 ± 3.1 (≈ 182 µM) | 43.4 ± 3.4 (≈ 90 µM) |
| O=C(/C=C/c1ccc(O)cc1)O[C@H]1[C@@H]2C=CO[C@@H](O[C@@H]3O[C@H](CO)[C@@H](O)[C@H](O)[C@H]3O)[C@@H]2[C@@]2(CO)O[C@@H]12 [Specioside] | decreased | the increase was significant | increased | 165 ± 3.1 (≈ 325 µM) | 70.7 ± 3.7 (≈ 139 µM) | 54.2 ± 3.7 (≈ 107 µM) |
